A short description of data set [1]: log P determination by HPLC (EEC Directive 79/831 Annex V.A8, gradient method). Type of data set: physicochemical. The following applies: HPLC, gradient method, acetonitrile/0.1% strength aqueous phosphoric acid or formic acid.
The subject of data set [2] is larvae of the mustard beetle (Phaedon cochleariae). Briefly: Phaedon test, PHAECO spray treatment. Type of data set: in vivo. The following applies: foliar, 168 h, 500 g a. i./ha, spray treatment of Chinese cabbage leaf discs, 7 d, read-out: % 7 d (effect in %, beetle larvae killed). On the procedure: (§1) [table] To produce a suitable preparation of active compound, 1 part by weight of active compound is mixed with the stated amounts of solvents and emulsifier, and the concentrate is diluted with emulsifier-containing water to the desired concentration. Discs of Chinese cabbage leaves (Brassica pekinensis) are sprayed with a preparation of active compound of the desired concentration and, after drying, populated with larvae of the mustard beetle (Phaedon cochleariae). After the desired period of time, the effect in % is determined. 100% means that all beetle larvae have been killed; 0% means that none of the beetle larvae have been killed.

Data set [3] deals with caterpillars of the army worm (Spodoptera frugiperda). As to the kind of experiment: Spodoptera frugiperda test, SPODFR spray treatment. The following applies: foliar, 168 h, 500 g a. i./ha, spray treatment of maize leaf discs, 7 d, read-out: % 7 d (effect in %, caterpillars killed). Type of data set: in vivo. On the procedure:
as §1, with “maize” for “Chinese cabbage”, “(Zea mays)” for “(Brassica pekinensis)”, “caterpillars” for “larvae”, “army worm (Spodoptera frugiperda).” for “mustard beetle (Phaedon cochleariae).”, “caterpillars” for “beetle larvae”

Where two headings read alike, the source gives them in different places.

For the molecule `CC(NC(=O)/C=C/c1c(-c2cccc(C(F)(F)F)c2)nc2sc(C(F)(F)F)nn12)c1ccccn1` (stereo not drawn) [Example 0416], the chromatographic logP in data set [1] (read-out: Physical data: log P) is 3.03. Besides, in data set [2], the pest or weed control at 500 g/ha came out at 100%. In the case of `O=C(/C=C/c1c(-c2ccccc2Cl)nc2sc(C(F)(F)F)nn12)NCC1CC1` [Example 0166], the chromatographic logP in data set [1] (read-out: Physical data (logP)) was determined as 3.26. In addition, the pest or weed control at 500 g/ha in data set [2] was determined as 100%. With `O=C(/C=C/c1c(-c2ccc(F)cc2Cl)nc2sc(C(F)(F)F)nn12)NCC(F)(F)F` [Example 0603], the pest or weed control at 500 g/ha in data set [3] amounted to 100%. The chromatographic logP in data set [1] (read-out: Physical data: log P) worked out at 3.51.

Regarding `CCCC(C)NC(=O)/C=C/c1c(-c2ccccc2C)nc2sc(C(F)(F)F)nn12` (stereo not drawn) [Example 0239], the pest or weed control at 500 g/ha in data set [3] was 100%. Besides, the chromatographic logP in data set [1] (read-out: Physical data: log P) is 3.94. For `CC(C)(C)NC(=O)/C=C/c1c(-c2ccc(Cl)cc2Cl)nc2sc(C(F)(F)F)nn12` [Example 0515] the same measures were 100% and 4.32.

For the molecule `CC(NC(=O)/C=C/c1c(-c2ccc(Cl)cc2)nc2sc(C(F)(F)F)nn12)C(F)(F)F` (stereo not drawn) [Example 0024], the pest or weed control at 500 g/ha in data set [3] was determined as 100%. Besides, the chromatographic logP in data set [1] (read-out: Physical data (logP)) was 4.13. As for `CC(NC(=O)/C=C/c1c(-c2cc(Cl)ccc2Cl)nc2sc(C(F)(F)F)nn12)C(F)(F)F` (stereo not drawn) [Example 0792], in data set [3], the pest or weed control at 500 g/ha came out at 100%. Besides, the chromatographic logP in data set [1] (read-out: Physical data: logP) was found to be 4.13. `CC(C)NC(=O)/C=C/c1c(-c2ccc(Cl)cc2Cl)nc2sc(C(F)(F)F)nn12` [Example 0513]: the pest or weed control at 500 g/ha in data set [3] is 100%. Besides, in data set [1] (read-out: Physical data: log P), the chromatographic logP turned out to be 3.69. The matching figures for `CC(NC(=O)/C=C/c1c(-c2ccc(F)cc2)nc2sc(C(F)(F)F)nn12)C(F)(F)F` (stereo not drawn) [Example 0317]: 100% and 3.72. As to `O=C(/C=C/c1c(-c2ccccc2Cl)nc2sc(C(F)(F)F)nn12)Nc1ccc(F)cc1` [Example 0201], in data set [3], the pest or weed control at 500 g/ha stood at 100%. In data set [1] (read-out: Physical data (logP)), the chromatographic logP was 4.08. Take `CC(NC(=O)/C=C/c1c(-c2cc(Cl)ccc2Cl)nc2sc(C(F)(F)F)nn12)C(F)(F)F` (stereo not drawn) [Example 0729]: in data set [2], the pest or weed control at 500 g/ha stood at 100%. On to `CCCC(C)NC(=O)/C=C/c1c(-c2ccccc2F)nc2sc(C(F)(F)F)nn12` (stereo not drawn) [Example 0452], for which the pest or weed control at 500 g/ha in data set [3] was determined as 100%. Besides, the chromatographic logP in data set [1] (read-out: Physical data: log P) was 3.68. Regarding `O=C(/C=C/c1c(-c2ccc(F)cc2Cl)nc2sc(C(F)(F)F)nn12)Nc1ccc(F)cc1` [Example 0624], in data set [3], the pest or weed control at 500 g/ha amounted to 100%. Further, the chromatographic logP in data set [1] (read-out: Physical data: log P) was 4.17. Turning to `Cc1ccccc1-c1nc2sc(C(F)(F)F)nn2c1/C=C/C(=O)NC(C)C(F)(F)F` (stereo not drawn) [Example 0246], the pest or weed control at 500 g/ha in data set [3] was determined as 100%. Besides, in data set [1] (read-out: Physical data: log P), the chromatographic logP is 3.76.

With `Cc1ccccc1-c1nc2sc(C(F)(F)F)nn2c1/C=C/C(=O)NC(C)c1ccccn1` (stereo not drawn) [Example 0274], in data set [3], the pest or weed control at 500 g/ha turned out to be 100%. For the same molecule, in data set [1] (read-out: Physical data: log P), the chromatographic logP was 2.45. For `CCC(CC)NC(=O)/C=C/c1c(-c2ccccc2C)nc2sc(C(F)(F)F)nn12` [Example 0286] the same measures were 100% and 3.85. Turning to `O=C(/C=C/c1c(-c2ccccc2Cl)nc2sc(C(F)(F)Cl)nn12)Nc1ccc(F)cc1` [Example 0767], the pest or weed control at 500 g/ha in data set [3] came to 100%. Further, the chromatographic logP in data set [1] (read-out: Physical data: logP) is 4.19.

In the case of `O=C(/C=C/c1c(-c2ccc(F)cc2Cl)nc2sc(C(F)(F)F)nn12)NCC(F)(F)C(F)(F)F` [Example 0610], the pest or weed control at 500 g/ha in data set [3] came out at 100%. In addition, the chromatographic logP in data set [1] (read-out: Physical data: log P) stood at 3.97.

Regarding `Cc1ccccc1-c1nc2sc(C(F)(F)F)nn2c1/C=C/C(=O)NC(C)C` [Example 0229], the pest or weed control at 500 g/ha in data set [3] was 100%. In addition, the chromatographic logP in data set [1] (read-out: Physical data: log P) is 3.24.

As to `COCC(C)NC(=O)/C=C/c1c(-c2ccc(F)cc2Cl)nc2sc(C(F)(F)F)nn12` (stereo not drawn) [Example 0592], the pest or weed control at 500 g/ha in data set [3] came out at 100%. For the same molecule, the chromatographic logP in data set [1] (read-out: Physical data: log P) is 3.11.

The values above are taken from patent publication US20090118286A1, “Heterobicyclic Acrylamides” (Bayer Cropscience AG, priority 2005, published 2009).
